Structures can show the parent of a compound that is named as a salt. A value given as a limit tells only on which side of the number the result lay.

Format in all cases: biochemical
For one assay, the target named is Human LOXL2 (Homo sapiens (Human), UniProt Q9Y4K0). The experiment in a line: LOXL2 inhibition, peroxidase-coupled Amplex Red amine oxidase assay. The following applies: 30 min preincubation at 37° C., putrescine substrate. The text has this:
(§1) Method to Determine the Ability of Compounds of the Invention to Inhibit LOX and LOXL1-4 from Different Sources
(§2) Lysyl oxidase (LOX) is an extracellular copper dependent enzyme which oxidizes peptidyl lysine and hydroxylysine residues in collagen and lysine residues in elastin to produce peptidyl alpha-aminoadipic-delta-semialdehydes. […] There are five LOX family members; these are LOX, LOXL1, LOXL2, LOXL3 and LOXL4. LOX and LOXL family members can be acquired as recombinant active proteins from commercial sources, or extracted from animal tissues like bovine aorta, tendons, pig skin; or prepared from cell cultures. The inhibitory effects of the compounds of the present invention were tested against the given LOX-LOXL preparation using a high-throughput coupled colorimetric method (Holt A. and Palcic M., A peroxidase-coupled continuous absorbance plate-reader assay for flavin monoamine oxidases, copper-containing amine oxidases and related enzymes. Nat. Protoc. 2006; 1: 2498-2505). The assay was developed using either 384 or 96 well format. Briefly, in a standard 384 well plate assay 25 μL of a dilution of any of the isoenzymes and orthologues in 1.2 M urea, 50 mM sodium borate buffer (pH 8.2) were added into each well in the presence of 1 μM mofegiline and 0.5 mM pargyline (to inhibit SSAO and MAO-B and MAO-A, respectively). Test compounds were dissolved in DMSO and tested in a Concentration Response Curve (CRC) with 11 data points, typically in the micromolar or nanomolar range after incubation with the enzyme for 30 min at 37° C. Twenty five L of a reaction mixture containing twice the KM concentration of putrescine (Sigma Aldrich, e.g. 20 mM for LOX, or 10 mM for LOXL2 and LOXL3), 120 μM Amplex Red (Sigma Aldrich) and 1.5 U/mL horseradish peroxidase (Sigma Aldrich) prepared in 1.2 M urea, 50 mM sodium borate buffer (pH 8.2) were then added to the corresponding wells. The above volumes were doubled in the case of 96 wells plate. The fluorescence (RFU) was read every 2.5 min for 30 min at a range of temperatures from 37° to 45° C., excitation 565 nm and emission 590 (Optima; BMG labtech). The slope of the kinetics for each well was calculated using MARS data analysis software (BMG labtech) and this value was used to deduce the IC50 value (Dotmatics).

The target of assay [1] is human recombinant SSAO/VAP-1 (Homo sapiens (Human), UniProt Q16853). The experiment in a line: Inhibition of human recombinant SSAO/VAP-1 amine oxidase activity. The following applies: 30 min preincubation at 37° C., 600 μM benzylamine. Here is the method: Method to Determine the Ability of Compounds of Formula I to Inhibit Human Recombinant SSAO/VAP-1
Chain of human recombinant SSAO/VAP-1 (Q16853 34-763): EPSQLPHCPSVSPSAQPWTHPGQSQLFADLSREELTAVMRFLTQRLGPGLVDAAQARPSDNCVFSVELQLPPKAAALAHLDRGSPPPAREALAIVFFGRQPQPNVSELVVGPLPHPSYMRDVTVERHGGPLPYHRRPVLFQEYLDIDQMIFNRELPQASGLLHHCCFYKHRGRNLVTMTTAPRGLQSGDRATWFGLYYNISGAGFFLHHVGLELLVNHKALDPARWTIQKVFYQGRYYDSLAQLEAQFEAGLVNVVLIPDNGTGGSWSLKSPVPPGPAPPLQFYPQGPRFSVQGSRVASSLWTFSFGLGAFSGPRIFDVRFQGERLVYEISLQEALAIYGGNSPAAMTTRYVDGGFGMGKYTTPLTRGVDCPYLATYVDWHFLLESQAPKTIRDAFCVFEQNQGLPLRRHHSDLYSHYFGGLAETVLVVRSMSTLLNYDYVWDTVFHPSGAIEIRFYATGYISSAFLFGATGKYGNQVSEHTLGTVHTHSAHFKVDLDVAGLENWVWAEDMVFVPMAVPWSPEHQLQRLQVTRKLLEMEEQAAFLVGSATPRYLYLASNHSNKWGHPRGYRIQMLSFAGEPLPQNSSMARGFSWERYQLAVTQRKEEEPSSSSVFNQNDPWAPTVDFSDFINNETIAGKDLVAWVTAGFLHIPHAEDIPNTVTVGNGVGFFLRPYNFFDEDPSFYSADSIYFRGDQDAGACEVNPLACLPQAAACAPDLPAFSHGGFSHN
Human recombinant SSAO/VAP-1 amine oxidase activity was determined using the coupled colorimetric method as described for monoamine oxidase, copper-containing amine oxidases and related enzymes (Holt A. and Palcic M., A peroxidase-coupled continuous absorbance plate-reader assay for flavin monoamine oxidases, copper-containing amine oxidases and related enzymes. Nat Protoc 2006; 1: 2498-2505). Briefly, a cloned cDNA template corresponding to residues 34-763 of human SSAO/VAP-1, and incorporating a mouse Ig kappa (κ) signal sequence, N-terminal flag epitope tag and tobacco etch virus (TEV) cleavage site, was assembled in a mammalian expression vector (pLO-CMV) by Geneart AG. This vector containing human SSAO/VAP-1 residues was transfected into CHO-K1 glycosylation mutant cell line, Lec 8. A clone stably expressing human SSAO/VAP-1 was isolated and cultured in large scale. Active human SSAO/VAP-1 was purified and recovered using immunoaffinity chromatography. This was used as the source for SSAO/VAP-1 activity. A high-throughput colorimetric assay was developed using either 96 or 384 well format. Briefly, in a standard 96 well plate assay 50 μL of purified human SSAO/VAP-1 (0.25 μg/mL) in 0.1 M sodium phosphate buffer (pH 7.4) was added into each well. Test compounds were dissolved in DMSO and tested in a Concentration Response Curve (CRC) with 4-11 data points, typically in the micromolar or nanomolar range after incubation with human SSAO/VAP-1 for 30 min at 37° C. After 30 min incubation, 50 μL of the reaction mixture containing 600 μM benzylamine (Sigma Aldrich), 120 μM Amplex Red (Sigma Aldrich) and 1.5 U/mL horseradish peroxidase (Sigma Aldrich) prepared in 0.1 M sodium phosphate buffer (pH 7.4) were added to the corresponding well. The fluorescence unit (RFU) was read every 2.5 min for 30 min at 37° C. excitation 565 nm and emission 590 (Optima; BMG labtech). The slope of the kinetics for each well was calculated using MARS data analysis software (BMG labtech) and this value was used to deduce the IC50 value (Dotmatics).

Another assay concerns the target Bovine LOX (Bos taurus (Bovine), UniProt P33072). Put plainly: LOX inhibition, peroxidase-coupled Amplex Red amine oxidase assay. To be noted: 30 min preincubation at 37° C., putrescine substrate.
From the text: as §1
as §2, with “Test compounds were dissolved in DMSO and tested in a Concentration Response Curve (CRC) with 11 data points, typically in the micromolar or nanomolar range after incubation with the enzyme for 30 min at 37° C.” left out

The target of another assay is Recombinant human MAO-B (Homo sapiens (Human), UniProt P27338). The experiment in a line: Inhibition of human recombinant MAO-B. To be noted: benzylamine 100 μM. How it is done: Method to Determine the Ability of Compounds of Formula I to Inhibit Human Recombinant MAO-B
Chain of Recombinant human MAO-B (P27338 whole entry): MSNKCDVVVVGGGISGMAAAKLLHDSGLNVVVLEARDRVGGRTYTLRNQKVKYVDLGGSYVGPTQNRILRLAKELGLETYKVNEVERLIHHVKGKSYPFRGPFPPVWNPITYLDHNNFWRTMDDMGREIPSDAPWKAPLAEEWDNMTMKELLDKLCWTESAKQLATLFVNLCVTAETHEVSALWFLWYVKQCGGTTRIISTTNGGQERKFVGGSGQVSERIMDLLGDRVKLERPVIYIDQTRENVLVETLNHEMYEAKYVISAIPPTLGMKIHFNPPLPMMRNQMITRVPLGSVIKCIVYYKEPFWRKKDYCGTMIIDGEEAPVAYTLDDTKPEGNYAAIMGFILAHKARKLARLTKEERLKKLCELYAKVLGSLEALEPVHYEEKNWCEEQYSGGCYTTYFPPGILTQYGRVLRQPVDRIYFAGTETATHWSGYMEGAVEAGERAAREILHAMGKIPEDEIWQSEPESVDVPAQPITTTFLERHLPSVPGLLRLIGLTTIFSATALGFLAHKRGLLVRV
The specificity of the compounds of this invention was tested by determining their ability to inhibit MAO-B activities in vitro. Recombinant human MAO-B (0.06 mg/mL; Sigma Aldrich) was used as source of MAO-B enzyme activities. The assay was performed in a similar way as for human SSAO/VAP-1 (Example 66) except, the substrate benzylamine was used at 100 μM.

Chain of Human LOXL2 (Q9Y4K0 26-774): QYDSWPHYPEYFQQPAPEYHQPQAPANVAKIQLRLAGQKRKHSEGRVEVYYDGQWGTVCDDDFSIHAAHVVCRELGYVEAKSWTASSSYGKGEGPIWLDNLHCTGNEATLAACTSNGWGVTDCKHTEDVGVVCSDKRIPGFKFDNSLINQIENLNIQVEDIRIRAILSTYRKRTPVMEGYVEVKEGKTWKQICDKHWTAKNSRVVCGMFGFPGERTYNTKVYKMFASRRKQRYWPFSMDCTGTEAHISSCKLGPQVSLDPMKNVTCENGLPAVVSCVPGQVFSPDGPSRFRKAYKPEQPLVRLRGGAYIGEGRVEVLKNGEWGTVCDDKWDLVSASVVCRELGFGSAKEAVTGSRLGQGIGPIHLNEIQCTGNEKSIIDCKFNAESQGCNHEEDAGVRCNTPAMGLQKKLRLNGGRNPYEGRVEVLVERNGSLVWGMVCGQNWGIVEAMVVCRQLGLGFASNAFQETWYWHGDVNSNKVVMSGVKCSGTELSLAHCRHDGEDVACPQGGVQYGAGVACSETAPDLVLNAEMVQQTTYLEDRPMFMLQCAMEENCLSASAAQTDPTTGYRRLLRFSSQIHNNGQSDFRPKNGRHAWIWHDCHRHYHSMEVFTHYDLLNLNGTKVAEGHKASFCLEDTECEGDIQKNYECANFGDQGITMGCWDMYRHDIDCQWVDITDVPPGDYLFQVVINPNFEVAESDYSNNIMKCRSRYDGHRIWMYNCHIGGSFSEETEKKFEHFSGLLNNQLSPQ
Chain of Bovine LOX (P33072 170-418): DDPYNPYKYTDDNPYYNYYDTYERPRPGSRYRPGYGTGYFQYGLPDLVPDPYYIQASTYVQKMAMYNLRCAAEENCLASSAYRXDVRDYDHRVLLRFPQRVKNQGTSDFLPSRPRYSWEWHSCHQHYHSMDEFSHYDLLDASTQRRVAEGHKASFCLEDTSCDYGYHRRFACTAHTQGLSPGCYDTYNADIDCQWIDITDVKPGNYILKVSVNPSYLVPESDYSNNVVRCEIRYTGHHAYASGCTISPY

Turning to `CCOC(=O)c1cc2c(-c3cccc(S(=O)(=O)N(C)C)c3)c(C)n(C/C(F)=C/CN)c2cc1F` [Compound 22, (Z)-ethyl 1-(4-amino-2-fluorobut-2-en-1-yl)-3-(3-(N,N-dimethylsulfamoyl)phenyl)-6-fluoro-2-methyl-1H-indole-5-carboxylate], the IC50 against Human LOXL2 was under 300 nM; in assay [1], over 3000 nM; at Bovine LOX, over 300 nM; on Recombinant human MAO-B, over 3000 nM.
Consider `Cc1c(-c2ccc(F)cc2)c2cc(C(=O)O)ccc2n1C/C(F)=C/CN` [Compound 23, (Z)-1-(4-amino-2-fluorobut-2-en-1-yl)-3-(4-fluorophenyl)-2-methyl-1H-indole-5-carboxylic acid], for which the IC50 against Human LOXL2 was under 300 nM; in assay [1], over 3000 nM; against Bovine LOX it was over 300 nM; at Recombinant human MAO-B, over 3000 nM.
Consider `CCOC(=O)c1ccc2c(c1)c(-c1ccc(F)cc1)c(C)n2C/C(F)=C/CN` [Compound 24, ethyl (Z)-1-(4-amino-2-fluorobut-2-en-1-yl)-3-(4-fluorophenyl)-2-methyl-1H-indole-5-carboxylate], for which the IC50 against Human LOXL2 was under 300 nM; in assay [1] it was over 3000 nM; against Bovine LOX, over 300 nM; at Recombinant human MAO-B it was over 3000 nM.
As for `Cc1c(-c2cccc(S(=O)(=O)N(C)C)c2)c2cnccc2n1C/C(F)=C/CN` [Compound 26, (Z)-3-(1-(4-amino-2-fluorobut-2-en-1-yl)-2-methyl-1H-pyrrolo[3,2-c]pyridin-3-yl)-N,N-dimethylbenzenesulfonamide Dihydrochloride], the IC50 on Human LOXL2 is under 300 nM; in assay [1], over 3000 nM; against Bovine LOX it was over 300 nM; at Recombinant human MAO-B, over 3000 nM.
Turning to `CCOC(=O)c1ccc2c(c1)c(-c1cccc(Cl)c1)c(C)n2C/C(F)=C/CN` [Compound 27, ethyl (Z)-1-(4-amino-2-fluorobut-2-en-1-yl)-3-(3-chlorophenyl)-2-methyl-1H-indole-5-carboxylate], the IC50 at Human LOXL2 is under 300 nM; in assay [1] it was over 3000 nM; against Bovine LOX it was over 300 nM; at Recombinant human MAO-B, over 3000 nM.
For `Cc1c(-c2cccc(Cl)c2)c2cc(C(=O)O)ccc2n1C/C(F)=C/CN` [Compound 28, (Z)-1-(4-amino-2-fluorobut-2-en-1-yl)-3-(3-chlorophenyl)-2-methyl-1H-indole-5-carboxylic acid], the IC50 at Human LOXL2 was under 300 nM; in assay [1], over 3000 nM; against Bovine LOX, over 300 nM; at Recombinant human MAO-B it was over 3000 nM.
In the case of `Cc1c(-c2cccc(S(=O)(=O)N(C)C)c2)c2cc(-c3nn[nH]n3)ccc2n1C/C(F)=C/CN` [Compound 29, (Z)-3-(1-(4-amino-2-fluorobut-2-en-l-yl)-2-methyl-5-(2H-tetrazol-5-yl)-1H-indol-3-yl)-N,N-dimethylbenzenesulfonamide, Hydrochloride], the IC50 at Human LOXL2 is under 300 nM; in assay [1] it was over 3000 nM; against Bovine LOX, over 300 nM; on Recombinant human MAO-B it was over 3000 nM.
On to `CCOC(=O)c1ccc2c(c1)c(-c1cccc(C(C)(C)C)c1)c(C)n2C/C(F)=C/CN` [Compound 30, ethyl (Z)-1-(4-amino-2-fluorobut-2-en-1-yl)-3-(3-(tert-butyl)phenyl)-2-methyl-1H-indole-5-carboxylate], for which the concentration for half-maximal inhibition (IC50) on Human LOXL2 is under 300 nM; in assay [1], over 3000 nM; at Bovine LOX, over 300 nM; at Recombinant human MAO-B, over 3000 nM.
Regarding `Cc1c(-c2cccc(C(C)(C)C)c2)c2cc(C(=O)O)ccc2n1C/C(F)=C/CN` [Compound 31, (Z)-1-(4-amino-2-fluorobut-2-en-l-yl)-3-(3-(tert-butyl)phenyl)-2-methyl-1H-indole-5-carboxylic acid, Hydrochloride], the IC50 on Human LOXL2 is under 300 nM; in assay [1], over 3000 nM; against Bovine LOX, over 300 nM; at Recombinant human MAO-B, over 3000 nM.
With `Cc1c(-c2cccc(S(=O)(=O)N(C)C)c2)c2ccncc2n1C/C(F)=C/CN` [Compound 32, (Z)-3-(1-(4-amino-2-fluorobut-2-en-1-yl)-2-methyl-1H-pyrrolo[2,3-c]pyridin-3-yl)-N,N-dimethylbenzenesulfonamide Dihydrochloride], the IC50 against Human LOXL2 is under 300 nM; in assay [1] it was over 3000 nM; on Bovine LOX it was over 300 nM; on Recombinant human MAO-B, over 3000 nM.
Consider `CCOC(=O)c1cccc(-c2c(C)n(C/C(F)=C/CN)c3ccc(S(=O)(=O)N(C)C)cc23)c1` [Compound 33, ethyl (Z)-3-(1-(4-amino-2-fluorobut-2-en-1-yl)-5-(N,N-dimethylsulfamoyl)-2-methyl-1H-indol-3-yl)benzoate], for which the IC50 was under 300 nM against Human LOXL2, over 3000 nM in assay [1], over 300 nM against Bovine LOX and over 3000 nM on Recombinant human MAO-B.
Take `Cc1c(-c2cccc(C(=O)O)c2)c2cc(S(=O)(=O)N(C)C)ccc2n1C/C(F)=C/CN` [Compound 34, (Z)-3-(1-(4-amino-2-fluorobut-2-en-1-yl)-5-(N,N-dimethylsulfamoyl)-2-methyl-1H-indol-3-yl)benzoic acid]: the IC50 against Human LOXL2 was under 300 nM; in assay [1], over 3000 nM; against Bovine LOX it was over 300 nM; at Recombinant human MAO-B it was over 3000 nM.

These data come from US10717733B2, “Haloallylamine indole and azaindole derivative inhibitors of lysyl oxidases and uses thereof” (PHARMAXIS LTD., priority 2016, dated 2020).
